Legend:
Test in all cases: relative viability (nuclei count vs DMSO), 5 days (fraction); higher = more cells survive
201T = test system: 201T
Procedure, shortened: (§1)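 Relative viability divides the nuclei count in treated wells by that in vehicle wells. Lung cancer cell lines were seeded in 1536-well plates, dosed by pin tool the next day, and fixed and stained after 5 days in one step with final 0.05% Triton X-100, 1% formaldehyde and 1 ug/ml Hoechst. Dosing was a single drug or a fixed anchor-drug dose plus five library-drug doses (not always all listed) in √10 steps, and values are medians of duplicate plates imaged at 4×.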

ABC-1 = test system: ABC-1
Procedure, shortened: as §1

BEN = test system: BEN
Procedure, shortened: as §1

CAL-12T = test system: CAL-12T
Procedure, shortened: as §1

COR-L 105 = test system: COR-L 105
Procedure, shortened: as §1

EKVX = test system: EKVX
Procedure, shortened: as §1

EMC-BAC-2 = test system: EMC-BAC-2
Procedure, shortened: as §1

HCC-15 = test system: HCC-15
Procedure, shortened: as §1

HCC-44 = test system: HCC-44
Procedure, shortened: as §1

LK-2 = test system: LK-2
Procedure, shortened: as §1

LU99A = test system: LU99A
Procedure, shortened: as §1

NCI-H1563 = test system: NCI-H1563
Procedure, shortened: as §1

NCI-H1651 = test system: NCI-H1651
Procedure, shortened: as §1

NCI-H2023 = test system: NCI-H2023
Procedure, shortened: as §1

NCI-H322M = test system: NCI-H322M
Procedure, shortened: as §1

NCI-H358 = test system: NCI-H358
Procedure, shortened: as §1

NCI-H460 = test system: NCI-H460
Procedure, shortened: as §1

NCI-H520 = test system: NCI-H520
Procedure, shortened: as §1

NCI-H522 = test system: NCI-H522
Procedure, shortened: as §1

NCI-H727 = test system: NCI-H727
Procedure, shortened: as §1

NCI-H838 = test system: NCI-H838
Procedure, shortened: as §1

PC-3 [JPC-3] = test system: PC-3 [JPC-3]
Procedure, shortened: as §1

SW 900 = test system: SW 900
Procedure, shortened: as §1

Compound `Cc1cn(-c2cc(NC(=O)c3ccc(C)c(Nc4nccc(-c5cccnc5)n4)c3)cc(C(F)(F)F)c2)cn1` [Nilotinib] + CCNC(=O)c1noc(-c2cc(C(C)C)c(O)cc2O)c1-c1ccc(CN2CCOCC2)cc1 [Luminespib] (partner 0.01 µM) has a relative viability (201T; first compound 0.003162 µM) of 1.13, a relative viability (201T; first compound 0.01 µM) of 1.16 and a relative viability (201T; first compound 0.03162 µM) of 1.11. For the same compound, the relative viability (201T; first compound 0.1 µM) was 1.03, the relative viability (ABC-1; first compound 0.001 µM) was 0.508 and the relative viability (ABC-1; first compound 0.003162 µM) was 0.227. It also gave a relative viability (ABC-1; first compound 0.01 µM) of 0.554, a relative viability (ABC-1; first compound 0.03162 µM) of 1.28 and a relative viability (ABC-1; first compound 0.1 µM) of 0.252. The relative viability (BEN; first compound 0.001 µM) was 0.563, the relative viability (BEN; first compound 0.003162 µM) was 0.275 and the relative viability (BEN; first compound 0.01 µM) was 0.378. The relative viability (BEN; first compound 0.03162 µM) was 0.277, the relative viability (BEN; first compound 0.1 µM) was 0.256 and the relative viability (CAL-12T; first compound 0.001 µM) was 0.66. It also gave a relative viability (CAL-12T; first compound 0.003162 µM) of 0.335, a relative viability (CAL-12T; first compound 0.01 µM) of 0.665 and a relative viability (CAL-12T; first compound 0.03162 µM) of 0.222. It also gave a relative viability (CAL-12T; first compound 0.1 µM) of 0.212, a relative viability (COR-L 105; first compound 0.001 µM) of 0.764 and a relative viability (COR-L 105; first compound 0.003162 µM) of 0.711. For the same compound, the relative viability (COR-L 105; first compound 0.01 µM) was 0.75, the relative viability (COR-L 105; first compound 0.03162 µM) was 0.698 and the relative viability (COR-L 105; first compound 0.1 µM) was 0.853. For the same compound, the relative viability (EKVX; first compound 0.001 µM) was 0.839, the relative viability (EKVX; first compound 0.003162 µM) was 0.959 and the relative viability (EKVX; first compound 0.01 µM) was 1.09. The relative viability (EKVX; first compound 0.03162 µM) was 0.88, the relative viability (EKVX; first compound 0.1 µM) was 0.955 and the relative viability (EMC-BAC-2; first compound 0.001 µM) was 1.09. The relative viability (EMC-BAC-2; first compound 0.003162 µM) was 1.36, the relative viability (EMC-BAC-2; first compound 0.01 µM) was 1.22 and the relative viability (EMC-BAC-2; first compound 0.03162 µM) was 1.01. The relative viability (EMC-BAC-2; first compound 0.1 µM) was 1.11, the relative viability (HCC-15; first compound 0.001 µM) was 0.241 and the relative viability (HCC-15; first compound 0.003162 µM) was 0.431. For the same compound, the relative viability (HCC-15; first compound 0.01 µM) was 0.486, the relative viability (HCC-15; first compound 0.03162 µM) was 0.219 and the relative viability (HCC-15; first compound 0.1 µM) was 0.325. The relative viability (HCC-44; first compound 0.001 µM) was 0.845, the relative viability (HCC-44; first compound 0.003162 µM) was 1.12 and the relative viability (HCC-44; first compound 0.01 µM) was 1.14. The relative viability (HCC-44; first compound 0.03162 µM) was 0.943, the relative viability (HCC-44; first compound 0.1 µM) was 0.833 and the relative viability (LK-2; first compound 0.003162 µM) was 0.139. For the same compound, the relative viability (LK-2; first compound 0.01 µM) was 0.207, the relative viability (LK-2; first compound 0.03162 µM) was 0.196 and the relative viability (LK-2; first compound 0.1 µM) was 0.182. For the same compound, the relative viability (LU99A; first compound 0.001 µM) was 0.227, the relative viability (LU99A; first compound 0.01 µM) was 0.274 and the relative viability (LU99A; first compound 0.03162 µM) was 0.219. It also gave a relative viability (LU99A; first compound 0.1 µM) of 0.213, a relative viability (NCI-H1563; first compound 0.001 µM) of 0.546 and a relative viability (NCI-H1563; first compound 0.003162 µM) of 0.475. The relative viability (NCI-H1563; first compound 0.01 µM) was 0.534, the relative viability (NCI-H1563; first compound 0.03162 µM) was 0.51 and the relative viability (NCI-H1563; first compound 0.1 µM) was 0.441. The relative viability (NCI-H1651; first compound 0.001 µM) was 0.78, the relative viability (NCI-H1651; first compound 0.003162 µM) was 0.912 and the relative viability (NCI-H1651; first compound 0.01 µM) was 0.902. The relative viability (NCI-H1651; first compound 0.03162 µM) was 0.711, the relative viability (NCI-H1651; first compound 0.1 µM) was 0.753 and the relative viability (NCI-H2023; first compound 0.001 µM) was 0.854. It also gave a relative viability (NCI-H2023; first compound 0.003162 µM) of 0.89, a relative viability (NCI-H2023; first compound 0.01 µM) of 0.99 and a relative viability (NCI-H2023; first compound 0.03162 µM) of 1.07. For the same compound, the relative viability (NCI-H2023; first compound 0.1 µM) was 0.38, the relative viability (NCI-H322M; first compound 0.001 µM) was 1.08 and the relative viability (NCI-H322M; first compound 0.003162 µM) was 0.481. For the same compound, the relative viability (NCI-H322M; first compound 0.01 µM) was 1.08, the relative viability (NCI-H322M; first compound 0.03162 µM) was 0.797 and the relative viability (NCI-H322M; first compound 0.1 µM) was 1.02. For the same compound, the relative viability (NCI-H358; first compound 0.001 µM) was 0.286, the relative viability (NCI-H358; first compound 0.003162 µM) was 0.311 and the relative viability (NCI-H358; first compound 0.01 µM) was 0.43. It also gave a relative viability (NCI-H358; first compound 0.03162 µM) of 0.188, a relative viability (NCI-H460; first compound 0.001 µM) of 0.0351 and a relative viability (NCI-H460; first compound 0.003162 µM) of 0.0386. It also gave a relative viability (NCI-H460; first compound 0.01 µM) of 0.0279, a relative viability (NCI-H460; first compound 0.03162 µM) of 0.0273 and a relative viability (NCI-H460; first compound 0.1 µM) of 0.0271. For the same compound, the relative viability (NCI-H520; first compound 0.001 µM) was 0.308, the relative viability (NCI-H520; first compound 0.01 µM) was 0.244 and the relative viability (NCI-H520; first compound 0.03162 µM) was 0.223. For the same compound, the relative viability (NCI-H520; first compound 0.1 µM) was 0.216, the relative viability (NCI-H522; first compound 0.001 µM) was 1.11 and the relative viability (NCI-H522; first compound 0.003162 µM) was 1.13. The relative viability (NCI-H522; first compound 0.01 µM) was 1.35, the relative viability (NCI-H522; first compound 0.03162 µM) was 1.07 and the relative viability (NCI-H522; first compound 0.1 µM) was 1.15. The relative viability (NCI-H727; first compound 0.001 µM) was 0.349, the relative viability (NCI-H727; first compound 0.003162 µM) was 0.516 and the relative viability (NCI-H727; first compound 0.01 µM) was 0.227. The relative viability (NCI-H727; first compound 0.03162 µM) was 0.281, the relative viability (NCI-H727; first compound 0.1 µM) was 0.344 and the relative viability (NCI-H838; first compound 0.001 µM) was 0.24. It also gave a relative viability (NCI-H838; first compound 0.003162 µM) of 0.276, a relative viability (NCI-H838; first compound 0.01 µM) of 0.308 and a relative viability (NCI-H838; first compound 0.03162 µM) of 0.273. For the same compound, the relative viability (NCI-H838; first compound 0.1 µM) was 0.208, the relative viability (PC-3 [JPC-3]; first compound 0.001 µM) was 0.548 and the relative viability (PC-3 [JPC-3]; first compound 0.003162 µM) was 0.627. The relative viability (PC-3 [JPC-3]; first compound 0.01 µM) was 0.869, the relative viability (PC-3 [JPC-3]; first compound 0.03162 µM) was 0.659 and the relative viability (PC-3 [JPC-3]; first compound 0.1 µM) was 0.526. For the same compound, the relative viability (SW 900; first compound 0.001 µM) was 0.177, the relative viability (SW 900; first compound 0.003162 µM) was 0.176 and the relative viability (SW 900; first compound 0.01 µM) was 0.164. It also gave a relative viability (SW 900; first compound 0.03162 µM) of 0.186 and a relative viability (SW 900; first compound 0.1 µM) of 0.198.

Source: the supplement of paper PMC10307832
